The record followed here is ChEMBL document CHEMBL4699397, “Development of potent CPP6-gemcitabine conjugates against human prostate cancer cell line (PC-3)” (RSC Med Chem, 2020).

*1 amine or outer side, *2 acyl side, *3 side chain or, on linkers, in order; H or OH if unused. Where a SMILES comes first, the peptide text is derived from it. The star is where a group is joined. X1 = O=c1nc(N*)ccn1[C@@H]1O[C@H](CO)[C@@H](O)C1(F)F; Suc = O=C(CCC(=O)[*:2])[*:1]

One data set concerns BXPC-3. Nature of the data set: Cytotoxicity against human BXPC-3 cells assessed as inhibition of cell growth measured after 72 hrs by SRB assay. It is filed as functional, cell-based. The note with it: BXPC-3, 72 h. For orientation: Sulforhodamine B stains cellular protein and so reports cell mass.
The next data set deals with MCF7. Nature of the data set: Cytotoxicity against human MCF7 cells assessed as inhibition of cell growth measured after 72 hrs by MTT assay. It is filed as functional, cell-based. To be noted: MCF7, 72 h. In general terms: Formazan colour is commonly taken as a measure of viable cells.
In the next data set the test system is PC-3. Nature of the data set: Cytotoxicity against human PC-3 cells assessed as inhibition of cell growth measured after 72 hrs by MTT assay. To be noted: PC-3, 72 h. It is filed as functional, cell-based.
A short description of data set [1]: Half life of the compound. It is filed as physicochemical.

The IC50 is the concentration that inhibits the measured activity by half. In the case of `CSCC[C@H](NC(=O)[C@@H](NC(=O)[C@@H]1CCCN1C(=O)[C@H](CC(C)C)NC(=O)[C@H](CCCCN)NC(=O)[C@@H](N)Cc1c[nH]c2ccccc12)C(C)C)C(N)=O`, the 50% inhibitory concentration (IC50) was more than 1000 nM in the data set with BXPC-3, 223 nM in the data set with MCF7 and more than 1000 nM with PC-3.

With `CSCC[C@H](NC(=O)[C@@H](NC(=O)[C@@H]1CCCN1C(=O)[C@H](CC(C)C)NC(=O)[C@H](CCCCN)NC(=O)CCC(=O)Nc1ccn([C@@H]2O[C@H](CO)[C@@H](O)C2(F)F)c(=O)n1)C(C)C)C(=O)N[C@@H](Cc1c[nH]c2ccccc12)C(N)=O` ({X1-Suc}-KLPVMW-NH2), the IC50 in the data set on BXPC-3 was 170 nM; in the data set on MCF7 it was 6.9 nM; in the data set on PC-3, more than 1000 nM.

Take `CSCC[C@H](NC(=O)[C@@H](NC(=O)[C@@H]1CCCN1C(=O)[C@H](CC(C)C)NC(=O)[C@H](CCCCN)NC(=O)[C@H](Cc1c[nH]c2ccccc12)NC(=O)CCC(=O)Nc1ccn([C@@H]2O[C@H](CO)[C@@H](O)C2(F)F)c(=O)n1)C(C)C)C(N)=O` ({X1-Suc}-WKLPVM-NH2): the figures for the IC50 with BXPC-3, in the data set with MCF7 and with PC-3 were 180 nM, 5.1 nM and 15 nM, respectively.

In the case of `CC(C)C[C@H](NC(=O)[C@@H](NC(=O)[C@@H]1CCCN1C(=O)[C@@H](NC(=O)[C@H](Cc1c[nH]c2ccccc12)NC(=O)CCC(=O)Nc1ccn([C@@H]2O[C@H](CO)[C@@H](O)C2(F)F)c(=O)n1)C(C)C)[C@@H](C)O)C(=O)N[C@@H](CCCCN)C(N)=O` ({X1-Suc}-WVPTLK-NH2), the results for the IC50 in the data set with BXPC-3, with MCF7 and in the data set with PC-3 were 200 nM, 4 nM and 14 nM, respectively.

A word on the half-life: it is how long it takes for the measured level to halve. Higher therefore signals slow loss. In the case of `Nc1ccn([C@@H]2O[C@H](CO)[C@@H](O)C2(F)F)c(=O)n1` [GEMCITABINE], the half-inhibitory concentration (IC50) in the data set with BXPC-3 was determined as 130 nM; in the data set on MCF7, 1.4 nM; in the data set on PC-3, 74 nM. In data set [1], the half-life turned out to be 8 min.

Consider `CN(C)C(=N)NC(=N)N` [METFORMIN], for which the IC50 in the data set on MCF7 was 9.9 nM; with PC-3, 189 nM.

For the compound `CC/C(=C(\c1ccccc1)c1ccc(OCCN(C)C)cc1)c1ccccc1` [TAMOXIFEN], the IC50 in the data set on PC-3 was more than 1000 nM.

H-KLPVMW-NH2: the IC50 in the data set with BXPC-3, in the data set with MCF7 and in the data set with PC-3 was more than 1000 nM in each case.

Take H-WVPTLK-NH2: the IC50 with BXPC-3, in the data set on MCF7 and in the data set with PC-3 was more than 1000 nM in each case.
